Experimental data as given in patent US20100081699A1, “YEAST PLATFORM CONSTRUCTION AND SCREENING METHODS” (Bioalvo-Servicos ,Investigacao e Desenvolvimento em …, priority 2006, published 2010).

Target: T1, human IDO (Homo sapiens, UniProt P14902)
T1 construct: The IDO gene was obtained from the IMAGE consortium as a 1586 bps fragment cloned in the vector pCMV-SPORT6; expressed in transfected cells
Assay: Growth inhibition of BLOCKADE cells with small molecule compounds (life/death screen)
Assay type: cell-based
Details: S. cerevisiae BLOCKADE cells, minimum medium with 2% galactose, 10, 5, 2.5 and 1 μM compound, 3 days at 30° C.; WT cells at 10 μM as cytotoxicity control
Method: Cells were pre-grown on a mixture of 1.2% glucose and 0.8% galactose until reaching early exponential phase (OD=1-2). The cells were washed three times with water and then resuspended in fresh selective medium containing 2% galactose, in order to fully activate IDO expression. Cells were dispensed into 96-well plates and inhibitor compounds were added to the cell culture at concentrations of 10, 5, 2.5 and 1 μM. Growth was monitored during 3 days at 30° C. under agitation. Compounds were selected from diverse libraries.
IDO inhibitory compounds were identified as those that repressed the growth of the cells. Possible cytotoxic effects of the compounds were identified by growing the wild type strain in the same condition at a concentration of 10 μM. Compounds inhibiting both BLOCKADE cells and wild type strains were considered as cytotoxic and therefore not selected for further development. Compounds inhibiting only BLOCKADE cells, but not the wild type strains were considered as hits, potential IDO inhibitory compounds.

T1 sequence (P14902 whole entry, the tested form may be a part): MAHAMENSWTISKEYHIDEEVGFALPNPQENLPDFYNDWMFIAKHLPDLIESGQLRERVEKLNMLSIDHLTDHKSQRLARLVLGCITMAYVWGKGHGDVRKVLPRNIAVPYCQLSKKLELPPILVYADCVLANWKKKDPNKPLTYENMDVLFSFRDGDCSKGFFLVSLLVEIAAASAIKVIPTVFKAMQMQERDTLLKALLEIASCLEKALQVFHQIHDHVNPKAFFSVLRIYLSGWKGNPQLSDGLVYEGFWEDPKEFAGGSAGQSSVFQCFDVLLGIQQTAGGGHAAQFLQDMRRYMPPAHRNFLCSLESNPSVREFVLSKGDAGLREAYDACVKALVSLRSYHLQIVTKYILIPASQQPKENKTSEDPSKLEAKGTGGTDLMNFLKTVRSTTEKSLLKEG

## O=C(O)CCn1c2ccc(Br)cc2c2cc(Br)ccc21 [BLK200769]
  Inhibition of growth of BLOCKADE cells: inhibition
